Laboratory results from article PMC11999338, “Factor XI localization in human deep venous thrombus and function of activated factor XI on venous thrombus formation and hemostasis” (Research and Practice in Thrombosis and Haemostasis, 2025).
Entries after “also recorded” stand apart in the source; their conditions may differ.

Experiments:
PT and aPTT [1] = experiment: Coagulation parameters (PT, aPTT) after oral administration in rabbits, denudation/stenosis model; assay type: in vivo, rabbit
Protocol: The protocols of the venous thrombosis and skin bleeding models in rabbits were as follows (Supplementary Figure 2). First, fasting rabbits were orally administered a solvent as a control (n = 10), a FXIa inhibitor (ONO-1600586, 5 mg/kg, n = 10; 15 mg/kg, n = 10; and 50 mg/kg, n = 11), or a FXa inhibitor (rivaroxaban, 1.5 mg/kg, 5 mg/kg, and 15 mg/kg, n = 10 each) using a Nelaton catheter of 5 mm diameter (IZUMO Health Co, Ltd) 90 minutes before thrombus formation. The thrombus formation and bleeding were performed under general anesthesia through the subcutaneous injection of a mixture of medetomidine hydrochloride (0.08 mg/kg body weight), butorphanol tartrate (0.2 mg/kg), and midazolam (0.4 mg/kg). Additional anesthesia with one-third amount of the above-mentioned mixture of drugs was administered 80 minutes after the first injection, and all surgical operations proceeded under aseptic conditions.
Blood samples were collected from the central ear arteries of rabbits before and 75 minutes and 4.5 hours after the administration of the solvent, ONO-1600586, and rivaroxaban in 3.8% sodium citrate (9:1 v/v) using 21-gauge needles. Plasma samples were centrifuged at 1500 × g for 15 minutes at room temperature. Prothrombin time (PT) and activated partial thromboplastin time (aPTT) were measured using a coagulation timer (KC-1 Delta, Tcoag Ireland Ltd) and reagents (aPTT: ACTIN, Siemens; PT: THROMBOCHECK PT+, Sysmex).

jugular vein thrombus = experiment: Stasis-induced thrombus formation in rabbit jugular veins; assay type: in vivo; settings: rabbits, oral ONO-1600586 50 mg/kg or rivaroxaban 15 mg/kg 60 minutes before stasis, 6 hours stasis
Protocol: The protocols of venous thrombosis by stasis were as follows (Supplementary Figure 4). First, fasting rabbits were orally administered a solvent as a control (n = 8), a FXIa inhibitor (ONO-1600586, 50 mg/kg, n = 8), or a FXa inhibitor (rivaroxaban, 15 mg/kg, n = 8) using a Nelaton catheter of 5 mm diameter (IZUMO Health Co, Ltd) 60 minutes before thrombus formation. The process of thrombus formation was performed under general anesthesia through the subcutaneous injection of a mixture of medetomidine hydrochloride (0.08 mg/kg body weight), butorphanol tartrate (0.2 mg/kg), and midazolam (0.4 mg/kg). Briefly, 60 minutes postadministration of the solvent, ONO-1600586, or rivaroxaban, venous thrombi were induced in rabbit jugular veins by ligations and luminal stenosis. To induce luminal stenosis, a 1 mm polyethylene tube was placed outside the vessel. Both the jugular vein and polyethylene tube were ligated 4 cm upstream of the ligature, and the tube was removed (Supplementary Figure 5). Next, 6 hours after stasis in the jugular vein, the rabbits were infused with heparin (500 U/kg, i.v.). They were then euthanized with an overdose of pentobarbital (60 mg/kg, i.v.), and the jugular veins were sampled. In this model, the animals were not perfused with phosphate-buffered saline because the thrombi were fragile. The venous thrombi were immediately removed from the venous wall and weighed.

[2] = test system: thrombi on the collagen surface; experiment: Ex vivo rabbit blood perfusion in flow chamber on collagen surface (70/s); assay type: cell-based; settings: rabbit blood 75 minutes after oral ONO-1600586 50 mg/kg or rivaroxaban 15 mg/kg, shear rate 70/s
Protocol: Blood from rabbits 75 minutes postadministration of a solvent as a control (n = 5), a FXIa inhibitor (ONO-1600586, 50 mg/kg, n = 5), or a FXa inhibitor (rivaroxaban, 15 mg/kg, n = 5) was collected using 21-gauge needles into plastic syringes containing corn trypsin inhibitor (Molecular Innovations; final concentration 20 μg/mL) and a specific FXa inhibitor, Arixtra (Organon Sanofi-Synthelabo, final concentration 6 μg/mL). Anticoagulated whole blood was stored at room temperature and used for perfusion studies within 1 hour of collection. Next, mepacrine (quinacrine dihydrochloride, Sigma-Aldrich, final concentration 5 μM) was added to the blood before perfusion for platelet labeling, which enables the visualization of platelet-surface interaction through epifluorescence videomicroscopy. Collagen from the horse tendon (Collagen Reagent HORM, Takeda Pharmaceutical, 20 μg/mL) was immobilized on glass coverslips (24 × 50 mm) in parallel-plate flow chambers, as previously described. Blood samples were perfused through the chamber using a syringe pump (KDS100, KD Scientific Inc) at a constant flow rate (15 mL/h) to achieve wall shear rates of 70/s. Platelets interacting with the immobilized collagen were visualized using an inverted stage epifluorescence microscope (IX71, OLYMPUS). Images were captured at 3, 6, and 9 minutes after perfusion with a photosensitive color CCD camera (DP70, Olympus), and surface covering areas were semiquantified using a morphometric analysis system (WinROOF, Mitani).
After perfusion, coverslips were immediately fixed in 95% alcohol for 1 hour at room temperature, stained using antibodies for fibrin (Millipore), and faintly counterstained with Meyer’s hematoxylin. […] Finally, the number of attached cells with multilobulated nuclei was counted as the neutrophil number in 5 fields under a 20× objective lens and expressed as the number of neutrophils per mm^2.

PT and aPTT [3] = experiment: PT and aPTT of human blood with inhibitor added in vitro; assay type: biochemical; settings: ONO-1600586 3 μmol/L, rivaroxaban 1 μmol/L
[4] = 75 minutes after oral administration, ONO-1600586 5, 15, 50 mg/kg, rivaroxaban 1.5, 5, 15 mg/kg
[5] = 4.5 hours after oral administration, ONO-1600586 50 mg/mL, rivaroxaban 15 mg/mL (so in the source)

SMILES: O=C(NC[C@H]1CN(c2ccc(N3CCOCC3=O)cc2)C(=O)O1)c1ccc(Cl)s1 [rivaroxaban]
- PT after oral administration (PT and aPTT [1]; [4]): dose-dependently prolonged
- aPTT after oral administration (PT and aPTT [1]; [4]): dose-dependently prolonged
- PT after oral administration (PT and aPTT [1]; [5]): prolonged
- aPTT after oral administration (PT and aPTT [1]; [5]): prolonged
- stasis-induced venous thrombus weight compared with control (jugular vein thrombus): significantly reduced; also recorded: similarly reduced
- fibrin formation (fibrin-immunopositive area) in the flow chamber [2]: markedly decreased; also recorded: Absence or little fibrin formation
- neutrophil attachment on the thrombus [2]: did not affect
- surface covering areas ([2]; 3, 6, 9 minutes): did not differ
- PT compared with control (PT and aPTT [3]): 1.9 fold
- aPTT compared with control (PT and aPTT [3]): 1.8 fold
- PT (PT and aPTT [3]; n = 8): 19 ± 3 s
- aPTT (PT and aPTT [3]; n = 8): 62 ± 5 s
